The values that follow come from patent US9024038B2 (Purdue Research Foundation, priority 2010, dated 2015).

What is called Ki is a measure of affinity in units of concentration, obtained from inhibition or displacement. What is called EC50 is the concentration that produces a half-maximal response. A high value points to weaker potency.

Where two headings read alike, the source gives them in different places. A value given as a limit tells only on which side of the number the result lay.

The subject of assay [1] is HIV-1LAI. The assay can be described thus: Antiviral assay in MT-2 human T-lymphoid cells exposed to HIV-1LAI, MTT readout. Format: cell-based.
Assay [2] concerns the target HIV-1 protease (Human immunodeficiency virus type 1 group M subtype B, UniProt P04585). Kind of assay: HIV-1 protease enzyme inhibitory assay (protocol of Toth and Marshall). Format: biochemical. To be noted: for fold change in Ki compared to inhibitor 35a: loss of enzyme inhibitory potency vs 35a.
Assay [3] has as its system HIV-1MDR/MM (R5). The assay can be described thus: Antiviral activity in PHA-PBMs, p24 Gag, multidrug resistant clinical isolate. Format: cell-based. An excerpt: (§1) Inhibitor 35a was examined for its activity against a panel of multidrug-resistant HIV-1 variants and compared it with that of other clinically available PIs including 1a. […] This inhibitor outperformed the clinically available PIs with high antiviral activity and seems to compare well with 1a, which currently stands as the leading PI for the treatment of drug-resistant HIV infection.

The subject of assay [4] is HIV-1MRD/C (X4). Described as above. Format: cell-based.
From the text: as §1

Assay [5] deals with HIV-1MDR/B (X4). Described as above. The class given is cell-based. To be noted: for EC50: PHA-PBMs, p24 Gag.
From the text: as §1

The test system of assay [6] is HIV-1MDR/G (X4). The assay is described as above. The class given is cell-based.
From the text: as §1

In assay [7] the test system is HIV-1MDR/JSL (R5). The description is as above. The class given is cell-based. To be noted: for EC50: PHA-PBMs, p24 Gag.
From the text: as §1

The test system of assay [8] is HIV-1MDR/TM (X4). The description is as above. Format: cell-based.
From the text: as §1

The subject of assay [9] is HIV-1ERS104pre (X4). The assay can be described thus: Antiviral activity in PHA-PBMs, inhibition of p24 Gag protein production, wild-type clinical isolate. The class given is cell-based.
From the text: as §1

The mark [10] stands for this setting: Human immunodeficiency virus 1, MT2.
Where [11] appears, read: Human immunodeficiency virus 1, T-lymphoid, read-out: Antiviral IC50, (nM).
Where [12] appears, read: Human immunodeficiency virus 1, T-lymphoid.
Where [13] appears, read: Human immunodeficiency virus 1, MT2, MT-2 cells, 100 TCID50s of HIV-1LAI, MTT assay, read-out: IC50.

Compound `CC(C)(C)NC(=O)[C@@H]1C[C@@H]2CCCC[C@@H]2CN1C[C@@H](O)[C@H](Cc1ccccc1)NC(=O)[C@H](CC(N)=O)NC(=O)c1ccc2ccccc2n1` [saquinavir, reference compound] had an IC50 in [1] (setting [10]) of 15 nM.
With `COc1cccc(C[C@H](NC(=O)O[C@H]2CCO[C@H]3OCC[C@H]32)[C@H](O)CN(CC(C)C)S(=O)(=O)c2ccc3nc(NC(C)C)sc3c2)c1`, in [2], the inhibition constant (Ki) is < 0.1 nM. Also, in assay [1] (setting [11]), the IC50 was < 1 nM.
In the case of `COc1ccc(C[C@H](NC(=O)O[C@H]2CCO[C@H]3OCC[C@H]32)[C@H](O)CN(CC(C)C)S(=O)(=O)c2ccc(OC)cc2)cc1` [compound 2], the Ki in assay [2] is < 0.1 nM. The IC50 in assay [1] (setting [12]) is < 1 nM.
With `COc1ccc(S(=O)(=O)N(CC(C)C)C[C@@H](O)[C@H](Cc2ccccc2)NC(=O)O[C@H]2CCO[C@H]3OC[C@H](OCc4ccccc4)[C@H]32)cc1`, the inhibition constant Ki in [2] was < 1 nM. Moreover, in [1] (setting [11]), the IC50 is < 1 nM.
Turning to `COc1ccc(C[C@H](NC(=O)O[C@H]2CCO[C@H]3OCC[C@H]32)[C@H](O)CN(C[C@H]2CCC(=O)N2)S(=O)(=O)c2ccc(N)cc2)cc1` [compound 4], the Ki in [2] is < 10 nM. Besides, the IC50 in assay [1] (setting [12]) is > 1000 nM.
As for `CC(C)CN(C[C@@H](O)[C@H](Cc1ccccc1)NC(=O)O[C@H]1CCO[C@H]2OCC[C@H]21)S(=O)(=O)c1ccc(N)cc1` [compound 36], the Ki in [2] (read-out: Ki) amounted to 0.01 nM. Besides, the IC50 in assay [1] (setting [10]) amounted to 6.5 nM.
As for `COC(=O)N[C@H](C(=O)N[C@@H](Cc1ccccc1)[C@@H](O)CN(Cc1ccc(-c2ccccn2)cc1)NC(=O)[C@@H](NC(=O)OC)C(C)(C)C)C(C)(C)C` [ATV], the EC50 in assay [3] (PHA-PBMs, p24 Gag) worked out at 205 ± 24 nM; in assay [4] (PHA-PBMs, p24 Gag) it was 39 ± 3 nM; in [5], 470 ± 7 nM; in assay [6] (PHA-PBMs, p24 Gag), 19 ± 8 nM; in assay [7], 293 ± 99 nM; in assay [8] (PHA-PBMs, p24 Gag), 75 ± 3 nM. Moreover, in assay [9], the EC50 turned out to be 2.7 ± 0.6 nM. Moreover, the “fold change of EC50 compared to wild-type HIV-1ERS104pre” value stood at 76 fold in [3] (number in parentheses); 14 fold in [4] (number in parentheses); 174 fold in [5] (number in parentheses); 7 fold in [6] (number in parentheses); 109 fold in assay [7] (number in parentheses); 28 fold in assay [8] (number in parentheses).
Consider `COc1ccc(S(=O)(=O)N(CC(C)C)C[C@@H](O)[C@H](Cc2ccccc2)NC(=O)O[C@H]2CO[C@H]3OCC[C@H]3C2)cc1` [35g, (3aS,5R,7aR)-Hexahydro-2H-furo[2,3-b]pyran-5-yl((2S,3R)-3-hydroxy-4-(N-isobutyl-4-methoxyphenylsulfonamido)-1-phenylbutan-2-yl)carbamate], for which the “protease inhibitory activity” value in assay [2] is recorded as “substantial loss of protease inhibitory activity”. In addition, the Ki in assay [2] (read-out: Ki) is 0.11 nM.
Regarding `Cc1cccc(C)c1OCC(=O)N[C@@H](Cc1ccccc1)[C@@H](O)C[C@H](Cc1ccccc1)NC(=O)[C@H](C(C)C)N1CCCNC1=O` [LPV], the EC50 in assay [5] and in [7] was > 1000 nM throughout.
In the case of `COc1ccc(S(=O)(=O)N(CC(C)C)C[C@@H](O)[C@H](Cc2ccccc2)NC(=O)O[C@H]2CCO[C@H]3COC[C@H]32)cc1` [35f, (4S,4aS,7aR)-Hexahydro-2H-furo[3,4-b]pyran-4-yl((2S,3R)-3-hydroxy-4-(N-isobutyl-4-methoxyphenylsulfonamido)-1-phenylbutan-2-yl)carbamate], the “protease inhibitory activity” value in [2] was “substantial loss of potency”. The Ki in assay [2] (read-out: Ki) came out at 5.3 nM. Besides, the IC50 in assay [1] (setting [10]) was > 1000 nM. For the same compound, in assay [1] (MT-2 cells, HIV-1LAI), the “antiviral activity” value is on record as “no antiviral activity”.
With `CCNC1CO[C@@H]2OCC[C@H](OC(=O)N[C@@H](Cc3ccccc3)[C@H](O)CN(CC(C)C)S(=O)(=O)c3ccc4nc(NC(C)C)sc4c3)C12` (stereo partly drawn), the inhibition constant Ki in assay [2] was < 0.1 nM. In addition, the IC50 in assay [1] (setting [11]) is < 10 nM.
As for `COc1ccc(S(=O)(=O)N(CC(C)C)C[C@@H](O)[C@H](Cc2ccccc2)NC(=O)O[C@H]2CCC[C@H]3CCC[C@H]32)cc1` [35e], the inhibition constant Ki in assay [2] (read-out: Ki) turned out to be 9 nM. Also, in [1] (setting [10]), the IC50 was > 1000 nM. The “antiviral activity” value in assay [1] (MT-2 cells, HIV-1LAI) is “no appreciable antiviral activity”.
Consider `CC(C)CN(C[C@@H](O)[C@H](Cc1ccccc1)NC(=O)O[C@H]1CCO[C@H]2OCC[C@H]21)S(=O)(=O)c1ccc(CO)cc1` [compound 37], for which the Ki in assay [2] (read-out: Ki) was found to be 0.085 nM. This compound registered an IC50 in assay [1] (setting [10]) of 4.5 nM.
For the compound `CC(C)CN(C[C@@H](O)[C@H](Cc1ccccc1)NC(=O)O[C@H]1CO[C@H]2OCC[C@H]21)S(=O)(=O)c1ccc(N)cc1` [drawing 189], the IC50 in assay [1] (setting [11]) was < 10 nM.
In the case of `COc1ccc(S(=O)(=O)N(CC(C)C)C[C@@H](O)[C@H](Cc2ccccc2)NC(=O)O[C@@H]2CCO[C@@H]3OCC[C@@H]32)cc1` [35b, (3aR,4R,7aS)-Hexahydro-2H-furo[2,3-b]pyran-4-yl((2S,3R)-3-hydroxy-4-(N-isobutyl-4-methoxyphenylsulfonamido)-1-phenylbutan-2-yl)carbamate], in assay [2], the “fold change in Ki compared to inhibitor 35a” value is reported as > 20 fold. In addition, in assay [2] (read-out: Ki), the Ki is 0.068 nM. The IC50 in [1] (setting [10]) turned out to be 19 nM; in assay [1] (Human immunodeficiency virus 1, MT2, read-out: antiviral activity ID50) it was 19 nM.
Take `COc1ccc(S(=O)(=O)N(CC(C)C)C[C@@H](O)[C@H](Cc2ccccc2)NC(=O)O[C@H]2CCO[C@H]3CCC[C@H]32)cc1` [35d, (4S,4aR,7aS)-Octahydrocyclopenta[b]pyran-4-yl((2S,3R)-3-hydroxy-4-(N-isobutyl-4-methoxyphenylsulfonamido)-1-phenylbutan-2-yl)carbamate]: in assay [2] (read-out: Ki), the Ki was 1.43 nM.
Regarding `COc1ccc(C[C@H](NC(=O)O[C@H]2CCO[C@H]3OCC[C@H]32)[C@H](O)CN(C[C@H]2CCC(=O)N2)S(=O)(=O)c2ccc(OC)cc2)cc1` [compound 3], in assay [2], the Ki is < 0.1 nM. In [1] (setting [12]), this compound gave an IC50 of 100 to 1000 nM.
As to `CC(C)CN(C[C@@H](O)[C@H](Cc1ccccc1)NC(=O)O[C@H]1CCO[C@H]2OCC[C@H]21)S(=O)(=O)c1ccc2nc(NC(C)C)oc2c1`, the IC50 in [1] (Human immunodeficiency virus 1, T-lymphoid, Examples Table 3, scored, read-out: Antiviral IC50) is < 10 nM.
As to `CC(C)CN(C[C@@H](O)[C@H](Cc1ccccc1)NC(=O)O[C@H]1CCO[C@H]2OCC(O)C21)S(=O)(=O)c1ccc2nc(NC(C)C)sc2c1` (stereo partly drawn), the Ki in [2] is < 0.1 nM. Further, the IC50 in assay [1] (setting [11]) was < 10 nM.
Consider `COc1ccc(S(=O)(=O)N(CC(C)C)C[C@@H](O)[C@H](Cc2ccccc2)NC(=O)O[C@H]2CCO[C@H]3OC[C@H](O)[C@H]32)cc1`, for which, in assay [2], the inhibition constant (Ki) is < 0.1 nM. In addition, in [1] (setting [11]), the IC50 is < 10 nM.
In the case of `COc1ccc(S(=O)(=O)N(CC(C)C)C[C@@H](O)[C@H](Cc2ccccc2)NC(=O)O[C@H]2CCO[C@H]3OC[C@H](OC)[C@H]32)cc1`, the inhibitory constant (Ki) in assay [2] is < 0.1 nM. Moreover, in [1] (setting [11]), the IC50 is < 1 nM.
For `COc1cccc(C[C@H](NC(=O)O[C@H]2CCO[C@H]3OCC[C@H]32)[C@H](O)CN(CC(C)C)S(=O)(=O)c2ccc3nc(NC(C)C)oc3c2)c1` the same measures were < 0.1 nM and < 10 nM.
On the same counts, the results for `COc1ccc(C[C@H](NC(=O)O[C@H]2CCO[C@H]3OCC[C@H]32)[C@H](O)CN(CC(C)C)S(=O)(=O)c2ccc3nc(NC(C)C)oc3c2)cc1` are < 0.1 nM and < 10 nM.
On to `CC(C)CN(C[C@@H](O)[C@H](Cc1ccccc1)NC(=O)O[C@H]1CCOC1)S(=O)(=O)c1ccc(N)cc1` [amprenavir, reference compound], for which the IC50 in assay [1] (setting [13]) is 30 nM.
Regarding `COc1ccc(C[C@H](NC(=O)O[C@H]2CCO[C@H]3OC[C@H](O)[C@H]32)[C@H](O)CN(CC(C)C)S(=O)(=O)c2ccc(OC)cc2)cc1`, the inhibition constant (Ki) in assay [2] is < 0.1 nM. Besides, the IC50 in assay [1] (setting [11]) was < 10 nM.
On to `COc1ccc(C[C@H](NC(=O)O[C@H]2CCO[C@H]3OCC[C@H]32)[C@H](O)CN(CC(C)C)S(=O)(=O)c2ccc(N)cc2)cc1` [compound 1], for which the Ki in assay [2] is < 1 nM. The same compound came in with an IC50 in assay [1] (setting [12]) of 1 to 10 nM.
Turning to `COc1ccc(S(=O)(=O)N(CC(C)C)C[C@@H](O)[C@H](Cc2ccccc2)NC(=O)O[C@H]2CCC[C@H]3OCC[C@@H]23)cc1` [35c, (3aR,4S,7aR)-Octahydrobenzofuran-4-yl(2S,3R)-3-hydroxy-4-(N-isobutyl-4-methoxyphenylsulfonamido)-1-phenylbutan-2-yl carbamate], in assay [2], the “fold change in Ki compared to inhibitor 35a” value is recorded as 2 fold. The Ki in [2] (read-out: Ki) was determined as 0.005 nM. Besides, in assay [1] (setting [13]), the IC50 was 8 nM. Besides, the “fold decrease in antiviral activity compared to inhibitor 35a” value in [1] (MT-2 cells, HIV-1LAI) was found to be 16 fold.
Turning to `CC(C)CN(C[C@@H](O)[C@H](Cc1ccccc1)NC(=O)O[C@H]1CCO[C@H]2OCC[C@H]21)S(=O)(=O)c1ccc2nc(NC(C)C)sc2c1`, in assay [2], the Ki was < 0.1 nM. Besides, the IC50 in [1] (setting [11]) was < 1 nM.
